Assay results as given in the Deep4Chem optical property database.
Where “and” joins values, the source holds several entries; their conditions need not be identical. Identical values can stand only once.

Assay: solvent given as SMILES
Settings: in C1CCCCC1

| emission maximum | Compound |
| --- | --- |
| 389 nm | COc1ccc2c3c(c4ccc(OC)cc4c2c1)C1(c2ccccc2-c2ccccc21)c1ccccc1-3 |
| 382 nm | O=C1Nc2ccccc2/C1=C/C(=O)c1ccc(Cl)cc1 |
| 438 nm | Cc1cccc(Nc2ccccc2C(=O)O)c1C |
| 485 nm | N#Cc1c2nc3ccccn3c2nc2nc3ccccn3c12 |

Second part, the compound before the results:

| Compound | emission maximum |
| --- | --- |
| CCCCC(CC)CN1C(=O)c2cccc3c(C#Cc4ccc(N(c5ccccc5)c5ccccc5)cc4)ccc(c23)C1=O (stereo not given) | 462 nm |
| CC(C)[Si]1(C(C)C)c2cc(C#N)ccc2-c2ccc(N(C)C)cc21 | 410 nm |
| C[Si](C)(c1cccc2cc3ccccc3cc12)[Si](C)(C)c1cccc2cc3ccccc3cc12 | 412 nm |
| CN(C)c1ccc2c(c1)COc1c-2oc2ccccc2c1=O | 411.43 nm |
| CCCCCCOc1ccc(C#Cc2ccc(C#Cc3ccc(OCCCCCC)c(OCCCCCC)c3)c3nsnc23)cc1OCCCCCC | 504 nm |

Same assay, conditions: in C1CCOC1

| Compound | emission maximum |
| --- | --- |
| CCCCC(CC)CN1C(=O)c2cccc3c(C#Cc4ccc(N(c5ccccc5)c5ccccc5)cc4)ccc(c23)C1=O (stereo not given) | 621 nm |
| CCN1c2ccc(/C=N/Nc3ccccn3)cc2Sc2cc(-c3ccccc3)ccc21 | 487 nm |
| CC(C)(C)c1ccc2c(c1)c1cc(C(C)(C)C)ccc1n2-c1ccc(-n2c3ccc(C(C)(C)C)cc3c3cc(C(C)(C)C)ccc32)c(C(=O)c2ccncc2)c1 | 519.49 nm |
| CCCCOc1ccc2cc(-c3ccc(C)cc3)c(=O)oc2c1 | 423 nm |
| Cc1cccc(Nc2ccccc2C(=O)O)c1C | 438 nm |
| c1ccc2cc3c(cc2c1)oc1c2oc4cc5ccccc5cc4c2c2ccccc2c31 | 399 nm |
| CCN(CC)c1ccc2cc(-c3cc(SC)c(C#N)c(=O)o3)c(=O)oc2c1 | 558 nm |
| C1=C2c3cc4ccccc4cc3C3=[N+]2[B-]2(Oc4ccccc43)Oc3ccccc3-c3c4cc5ccccc5cc4c1n32 (stereo not given) | 832 nm |
| CC(C)(C)c1ccc2c(c1)c1cc(C(C)(C)C)ccc1n2-c1cccc(C(=O)c2cccc(-n3c4ccc(C(C)(C)C)cc4c4cc(C(C)(C)C)ccc43)n2)n1 | 378.66 nm |

Same assay, conditions: in C1COCCO1

| emission maximum | Compound |
| --- | --- |
| 394 nm | O=C1Nc2ccccc2/C1=C/C(=O)c1ccc(Cl)cc1 |
| 437 nm | Cc1cccc(Nc2ccccc2C(=O)O)c1C |
| 505 nm | N#Cc1c2nc3ccccn3c2nc2nc3ccccn3c12 |

Same assay, conditions: in CC#N

| emission maximum | Compound |
| --- | --- |
| 398 nm | O=C1Nc2ccccc2/C1=C/C(=O)c1ccc(Cl)cc1 |
| 518 nm | Cc1cc(-c2ccccc2C)cc(C)[o+]1 |
| 398 nm | Cc1cccc(Nc2ccccc2C(=O)O)c1C |
| 525 nm | N#Cc1c2nc3ccccn3c2nc2nc3ccccn3c12 |
| 439 nm | CC1(C)CC(=O)c2ccccc2N1 |
| 430 nm | FC(F)(F)c1ccc(-c2pc3ccccc3s2)cc1 (stereo not given) |
| 470 nm | CN(C)CCCN1c2ccccc2Sc2ccc(C(F)(F)F)cc21 |
| 367 nm | Clc1ccc(-c2nc3ccccc3n2-c2ccccc2)cc1 |

The remaining lines, values behind:

| Compound | emission maximum |
| --- | --- |
| CCCCC(CC)CN1C(=O)c2cccc3c(C#Cc4ccc(N(c5ccccc5)c5ccccc5)cc4)ccc(c23)C1=O (stereo not given) | 547 nm |
| CC(C)[Si]1(C(C)C)c2cc(C#N)ccc2-c2ccc(N(C)C)cc21 | 464 nm |
| CCN(CC)c1ccc2cc(-c3cc(SC)c(C#N)c(=O)o3)c(=O)oc2c1 | 578 nm |
| C[Si](C)(c1cccc2cc3ccccc3cc12)[Si](C)(C)c1cccc2cc3ccccc3cc12 | 412 nm |
| CCOC(=O)CC[N+]1=c2cc3c(cc2CCC1)=Cc1c(c2cc4c5c(c2oc1=O)CCCN5CCC4)O3 | 687 nm |
| CN(C)c1ccc2c(c1)COc1c-2oc2ccccc2c1=O | 489 nm and 491.43 nm |

Same assay, conditions: in CC(C)(C)O

| emission maximum | Compound |
| --- | --- |
| 405 nm | O=C1Nc2ccccc2/C1=C/C(=O)c1ccc(Cl)cc1 |

Same assay, conditions: in CC(C)=O

| Compound | emission maximum |
| --- | --- |
| CCN(CC)c1ccc2cc(-c3cc(SC)c(C#N)c(=O)o3)c(=O)oc2c1 | 573 nm |

Same assay, conditions: in CC(C)O

| emission maximum | Compound |
| --- | --- |
| 404 nm | O=C1Nc2ccccc2/C1=C/C(=O)c1ccc(Cl)cc1 |

Same assay, conditions: in CCCCCC

| emission maximum | Compound |
| --- | --- |
| 382 nm | O=C1Nc2ccccc2/C1=C/C(=O)c1ccc(Cl)cc1 |
| 416 nm | CCCCOc1ccc2cc(-c3ccc(C)cc3)c(=O)oc2c1 |

| Compound | emission maximum |
| --- | --- |
| CC(C)(C)c1ccc2c(c1)c1cc(C(C)(C)C)ccc1n2-c1ccc(-n2c3ccc(C(C)(C)C)cc3c3cc(C(C)(C)C)ccc32)c(C(=O)c2ccncc2)c1 | 476.84 nm |

Same assay, conditions: in CCCCO

| emission maximum | Compound |
| --- | --- |
| 405 nm | O=C1Nc2ccccc2/C1=C/C(=O)c1ccc(Cl)cc1 |

Same assay, conditions: in CCO

| emission maximum | Compound |
| --- | --- |
| 429 nm | CCCCOc1ccc2cc(-c3ccc(C)cc3)c(=O)oc2c1 |
| 483 nm | CC1(C)CC(=O)c2ccccc2N1 |

| Compound | emission maximum |
| --- | --- |
| CC(C)[Si]1(C(C)C)c2cc(C#N)ccc2-c2ccc(N(C)C)cc21 | 456 nm |

Same assay, conditions: in CCOC(C)=O

| Compound | emission maximum |
| --- | --- |
| O=C1Nc2ccccc2/C1=C/C(=O)c1ccc(Cl)cc1 | 395 nm |
| Cc1cccc(Nc2ccccc2C(=O)O)c1C | 439 nm |
| CCN(CC)c1ccc2cc(-c3cc(SC)c(C#N)c(=O)o3)c(=O)oc2c1 | 554 nm |
| CN(C)c1ccc2c(c1)COc1c-2oc2ccccc2c1=O | 464 nm and 461.07 nm |
| CCCCCCOc1ccc(C#Cc2ccc(C#Cc3ccc(OCCCCCC)c(OCCCCCC)c3)c3nsnc23)cc1OCCCCCC | 550 nm |

Same assay, conditions: in CCOCC

| Compound | emission maximum |
| --- | --- |
| CC(C)[Si]1(C(C)C)c2cc(C#N)ccc2-c2ccc(N(C)C)cc21 | 423 nm |

Same assay, conditions: in CN(C)C=O

| emission maximum | Compound |
| --- | --- |
| 398 nm | O=C1Nc2ccccc2/C1=C/C(=O)c1ccc(Cl)cc1 |
| 385 nm | Cc1cccc(Nc2ccccc2C(=O)O)c1C |
| 540 nm | N#Cc1c2nc3ccccn3c2nc2nc3ccccn3c12 |

| Compound | emission maximum |
| --- | --- |
| CCN(CC)c1ccc2cc(-c3cc(SC)c(C#N)c(=O)o3)c(=O)oc2c1 | 585 nm |
